Measured values as given in patent publication US20140303105A1, “Primycin and components thereof for use in the treatment or prevention of infections caused by specific pathogens” (PANNONPHARMA GYÓGYSZERGYÁRTÓ ZRT., priority 2011, published 2014).
In brackets after ≈: the same amount, converted by molar mass. Read-outs that look alike come from different tables or passages of the source.

Tests used:
[1] = tested on: Staphylococcus epidermidis 7586; settings: cited from earlier work
[2] = tested on: Staphylococcus aureus 7503; settings: cited from earlier work
Diphteroides 8264 = settings: cited from earlier work
[3] = tested on: Staphylococcus saprophyticus 8454; settings: cited from earlier work
[4] = tested on: Serotype β Streptococcus 8252; settings: cited from earlier work
Streptococcus mitis 5728 = settings: cited from earlier work
[5] = tested on: Staphylococcus hominis 7835; settings: cited from earlier work
[6] = tested on: Streptococcus simulans 7866; settings: cited from earlier work
Micrococcus spp. = settings: cited from earlier work
Staphylococcus capitis = settings: cited from earlier work
[7] = tested on: Staphylococcus aureus ATCC 25923; settings: cited from earlier work
Escherichia coli B 1218 = settings: cited from earlier work
[8] = tested on: Enterobacter cloacae B 520; settings: cited from earlier work
[9] = tested on: Bacillus subtilis ATCC 6633; settings: cited from earlier work
Propionibacterium acnes [10] = settings: cited from earlier work
S. aureus = settings: by Bryskier; cited from earlier work
S. aureus ATCC 25923 = settings: by Bryskier; cited from earlier work
[11] = tested on: Staphylococcus epidermidis; settings: by Bryskier; cited from earlier work
S. pyogenes = settings: by Bryskier; cited from earlier work
Streptococcus mitis = settings: by Bryskier; cited from earlier work
Micrococcus = settings: by Bryskier; cited from earlier work
Coryneform(s) = settings: by Bryskier; cited from earlier work
B. subtilis ATCC 6633 = settings: by Bryskier; cited from earlier work
Escherichia coli = settings: by Bryskier; cited from earlier work
Enterobacter cloacae = settings: by Bryskier; cited from earlier work
Propionibacterium acnes [12] = settings: by Bryskier; cited from earlier work
[13] = tested on: Staphylococcus aureus, methicillin susceptible; assay: Standard microdilution susceptibility test, clinical isolates; format: cell-based
[14] = tested on: Staphylococcus aureus, methicillin resistant; assay: as above; format: cell-based
[15] = tested on: Coagulase-negative Staphylococus sp., methicillin susceptible; assay: as above; format: cell-based
[16] = tested on: Coagulase-negative Staphylococus sp., methicillin resistant; assay: as above; format: cell-based
[17] = tested on: Enterococcus sp., vancomycin susceptible; assay: as above; format: cell-based
[18] = tested on: Enterococcus sp., decreased vancomycin susceptibility; assay: as above; format: cell-based; settings: 5 clinical isolates
[19] = tested on: Streptococcus pneumoniae, penicillin susceptible; assay: as above; format: cell-based
[20] = tested on: Streptococcus pneumoniae, penicillin resistant; assay: as above; format: cell-based
[21] = tested on: Streptococcus viridans sp.; assay: as above; format: cell-based
E. casseliflavus = assay: Microdilution MIC, Enterococcus isolates with van resistance genes; format: cell-based; settings: Enterococcus casseliflavus
Experimental: Identification and characterization of resistance patterns of these bacteria were performed by standard methods.
When forming the test groups we attached great importance to the increasing incidence of drug-resistant microbes causing therapeutic problems. Most important of them are methicillin-resistant Staphylococcus aureus (MRSA), methicillin-resistant coagulase-negative Staphylococcus spp. (MRCoNS), penicillin-resistant Streptococcus pneumoniae (pneumococcus), vancomycin-resistant Enterococcus spp. (VRE). Pneumococcus isolates represented various serotypes, VRE isolates belonged to various species. Moreover, vancomycin-resistance of VRE isolates was based on different genetic backgrounds. Antibiotic-resistant strains were also represented among international reference strains, for example methicillin-resistant Staphylococcus aureus ATCC 43300 (MRSA), Staphylococcus aureus with decreased vancomycin susceptibility ATCC 700698 and 700699 (vancomycin intermediate Staphylococcus aureus—VISA), mupirocin-resistant Staphylococcus aureus ATCC BAA1708 and vancomycin-resistant Enterococcus faecalis ATCC 51299 (VRE).
Susceptibility tests were performed according to the standard microdilution method (NCCLS (CLSI) M7-A7).
The lowest concentration at which no bacterial growth was observed after the incubation period is the Minimal Inhibitory Concentration (MIC). The MIC value is inversely proportional to the antimicrobial efficacy. MIC values of antimicrobial agents can differ by species or even by bacterial strains within species.

CC1(C)S[C@@H]2[C@H](NC(=O)[C@H](N)c3ccccc3)C(=O)N2[C@H]1C(=O)O [Ampicillin]
MIC [1]: <0.5 µg/mL
MIC [2]: <0.5 µg/mL
MIC (Diphteroides 8264): 31.3 µg/mL (≈ 89.6 µM)
MIC [3]: <0.5 µg/mL
MIC [4]: <0.5 µg/mL
MIC (Streptococcus mitis 5728): 7.8 µg/mL (≈ 22.3 µM)
MIC [5]: <0.5 µg/mL
MIC [6]: <0.5 µg/mL
MIC (Micrococcus spp.): <0.5 µg/mL
MIC (Staphylococcus capitis): <0.5 µg/mL
MIC [7]: <0.5 µg/mL
MIC (Escherichia coli B 1218): 2.0 µg/mL (≈ 5.72 µM)
MIC [8]: 7.8 µg/mL (≈ 22.3 µM)
MIC [9]: <0.5 µg/mL
MIC (Propionibacterium acnes [10]): 1.0 µg/mL (≈ 2.86 µM)
MIC (S. aureus): <0.5 µg/mL
MIC (S. aureus ATCC 25923): <0.5 µg/mL
MIC [11]: <0.5 µg/mL
MIC (S. pyogenes): <0.5 µg/mL
MIC (Streptococcus mitis): 7.8 µg/mL (≈ 22.3 µM)
MIC (Micrococcus): <0.5 µg/mL
MIC (Coryneform(s)): 31.3 µg/mL (≈ 89.6 µM)
MIC (B. subtilis ATCC 6633): <0.5 µg/mL
MIC (Escherichia coli): 2.0 µg/mL (≈ 5.72 µM)
MIC (Enterobacter cloacae): 7.8 µg/mL (≈ 22.3 µM)
MIC (Propionibacterium acnes [12]): 1.0 µg/mL (≈ 2.86 µM)

[H]/N=C(/N)N[C@H]1[C@H](O)[C@@H](O)[C@H](O[C@@H]2O[C@@H](C)[C@](O)(C=O)[C@H]2O[C@@H]2O[C@@H](CO)[C@H](O)[C@@H](O)[C@@H]2NC)[C@@H](N/C(N)=N\[H])[C@@H]1O [Streptomycin]
MIC [1]: 2.0 µg/mL (≈ 3.44 µM)
MIC [2]: 2.0 µg/mL (≈ 3.44 µM)
MIC (Diphteroides 8264): >250 µg/mL
MIC [3]: 1.0 µg/mL (≈ 1.72 µM)
MIC [4]: 3.9 µg/mL (≈ 6.71 µM)
MIC (Streptococcus mitis 5728): 250 µg/mL (≈ 430 µM)
MIC [5]: 2.0 µg/mL (≈ 3.44 µM)
MIC [6]: 2.0 µg/mL (≈ 3.44 µM)
MIC (Micrococcus spp.): 3.9 µg/mL (≈ 6.71 µM)
MIC (Staphylococcus capitis): 3.9 µg/mL (≈ 6.71 µM)
MIC [7]: 3.9 µg/mL (≈ 6.71 µM)
MIC (Escherichia coli B 1218): 15.6 µg/mL (≈ 26.8 µM)
MIC [8]: 7.8 µg/mL (≈ 13.4 µM)
MIC [9]: 1.0 µg/mL (≈ 1.72 µM)
MIC (Propionibacterium acnes [10]): <0.5 µg/mL

CN[C@H](CC(C)C)C(=O)N[C@H]1C(=O)N[C@@H](CC(N)=O)C(=O)N[C@H]2C(=O)N[C@H]3C(=O)N[C@H](C(=O)N[C@H](C(=O)O)c4cc(O)cc(O)c4-c4cc3ccc4O)[C@H](O)c3ccc(c(Cl)c3)Oc3cc2cc(c3O[C@@H]2O[C@H](CO)[C@@H](O)[C@H](O)[C@H]2O[C@H]2C[C@](C)(N)[C@H](O)[C@H](C)O2)Oc2ccc(cc2Cl)[C@H]1O [Vancomycin]
MIC Range ([13]; 10 clinical isolates): 0.5 to 2 µg/mL
Ratio of Sensitive/Total ([13]; 10 clinical isolates): 10/10
MIC50 ([13]; Staphylococcus aureus): 1 µg/mL (≈ 0.69 µM)
MIC90 ([13]; Staphylococcus aureus): 1 µg/mL (≈ 0.69 µM)
MIC Range ([14]; 10 clinical isolates): 0.5 to 1 µg/mL
Ratio of Sensitive/Total ([14]; 10 clinical isolates): 10/10
MIC50 ([14]; Staphylococcus aureus): 1 µg/mL (≈ 0.69 µM)
MIC90 ([14]; Staphylococcus aureus): 1 µg/mL (≈ 0.69 µM)
MIC50 [15]: 1 µg/mL (≈ 0.69 µM)
MIC90 [15]: 2 µg/mL (≈ 1.38 µM)
MIC Range ([15]; 10 clinical isolates): 1 to 2 µg/mL
Ratio of Sensitive/Total ([15]; 10 clinical isolates): 10/10
MIC50 [16]: 2 µg/mL (≈ 1.38 µM)
MIC90 [16]: 2 µg/mL (≈ 1.38 µM)
MIC Range ([16]; 10 clinical isolates): 1 to 2 µg/mL
Ratio of Sensitive/Total ([16]; 10 clinical isolates): 10/10
MIC Range ([17]; 20 clinical isolates): 1 to 4 µg/mL
Ratio of Sensitive/Total ([17]; 20 clinical isolates): 20/20
MIC50 ([17]; Enterococcus): 1 µg/mL (≈ 0.69 µM)
MIC90 ([17]; Enterococcus): 2 µg/mL (≈ 1.38 µM)
Ratio of Sensitive/Total [18]: 0/5
MIC Range ([19]; 10 clinical isolates): 0.25 to 0.5 µg/mL
Ratio of Sensitive/Total ([19]; 10 clinical isolates): 10/10
MIC50 ([19]; Streptococcus pneumoniae): 0.5 µg/mL (≈ 0.345 µM)
MIC90 ([19]; Streptococcus pneumoniae): 0.5 µg/mL (≈ 0.345 µM)
MIC Range ([20]; 10 clinical isolates): 0.25 to 0.5 µg/mL
Ratio of Sensitive/Total ([20]; 10 clinical isolates): 10/10
MIC50 ([20]; Streptococcus pneumoniae): 0.5 µg/mL (≈ 0.345 µM)
MIC90 ([20]; Streptococcus pneumoniae): 0.5 µg/mL (≈ 0.345 µM)
MIC Range ([21]; 20 clinical isolates): 0.5 to 1 µg/mL
Ratio of Sensitive/Total ([21]; 20 clinical isolates): 10/20
MIC50 ([21]; Streptococcus viridans): 0.5 µg/mL (≈ 0.345 µM)
MIC90 ([21]; Streptococcus viridans): 1 µg/mL (≈ 0.69 µM)
MIC (E. casseliflavus; resistance gene van C1): 16 µg/mL (≈ 11 µM)
MIC (E. casseliflavus; resistance gene van C2): 8 µg/mL (≈ 5.52 µM)

Neomycin
MIC 50% ([13]; 10 clinical isolates): 1 µg/mL
MIC 90% ([13]; 10 clinical isolates): 2 µg/mL
MIC Range ([13]; 10 clinical isolates): 0.5 to 2 µg/mL
Ratio of Sensitive/Total ([13]; 10 clinical isolates): 10/10
MIC 50% ([14]; 10 clinical isolates): 1 µg/mL
MIC 90% ([14]; 10 clinical isolates): >32 µg/mL
Ratio of Sensitive/Total ([14]; 10 clinical isolates): 5/10
MIC 50% ([15]; 10 clinical isolates): 0.25 µg/mL
MIC 90% ([15]; 10 clinical isolates): 1 µg/mL
MIC Range ([15]; 10 clinical isolates): 0.06 to 4 µg/mL
Ratio of Sensitive/Total ([15]; 10 clinical isolates): 10/10
MIC 50% ([16]; 10 clinical isolates): 0.25 µg/mL
MIC 90% ([16]; 10 clinical isolates): 16 µg/mL
Ratio of Sensitive/Total ([16]; 10 clinical isolates): 8/10
MIC 50% ([17]; 20 clinical isolates): >32 µg/mL
MIC 90% ([17]; 20 clinical isolates): >32 µg/mL
Ratio of Sensitive/Total ([17]; 20 clinical isolates): 0/20
Ratio of Sensitive/Total [18]: 0/5
MIC 50% ([19]; 10 clinical isolates): >32 µg/mL
MIC 90% ([19]; 10 clinical isolates): >32 µg/mL
Ratio of Sensitive/Total ([19]; 10 clinical isolates): 0/10
MIC 50% ([20]; 10 clinical isolates): >32 µg/mL
MIC 90% ([20]; 10 clinical isolates): >32 µg/mL
Ratio of Sensitive/Total ([20]; 10 clinical isolates): 0/10
MIC 50% ([21]; 20 clinical isolates): >32 µg/mL
MIC 90% ([21]; 20 clinical isolates): >32 µg/mL
Ratio of Sensitive/Total ([21]; 20 clinical isolates): 0/20
